According to patent US8202899B2, “Pyrazole urea derivatives used as kinase inhibitors” (Array BioPharma Inc., priority 2007, dated 2012):
Converted amounts (≈) assume the structure as drawn. Where two headings read alike, the source gives them in different places.

What was measured:
[1] = Solubility Assay (modified shake flask method); assay type: physicochemical
Method: The solubility of each of the compounds of Examples 1 and 2 were tested at pHs 1.2, 6.5 and 7.4 using a modified shake flask method. The compounds were received as 1.6 mg/mL stock solutions in DMSO. Aqueous unknowns were prepared at final concentrations of 16 μg/mL and 32 μg/mL, with each aqueous unknown containing 1% or 2% DMSO, respectively. The aqueous samples were quantitated against organic standards prepared in MeOH (with 1% DMSO in the high standard (16 μg/mL). UV 220 nm and UV 254 nm area were used for quantitation.

[2] = tested on: TNF-α production in whole blood treated with LPS; assay: Human Whole Blood TNF-α Assay; assay type: cell-based; details: inhibition of LPS-induced TNF-α production, ELISA, read-out: apparent IC50
Method: In a functional cell assay, the compound of Examples 1 and 2 were tested for their ability to inhibit TNF-α production in whole blood treated with bacterial lipopolysaccharide (LPS) to induce cytokine production (as detected by ELISA).
Compound test solutions were made by making 3.33 fold serial dilutions in DMSO, which dilutions were then diluted to 5× stocks by diluting with MEM, 2% heat inactivated fetal bovine serum (“MS”), 20 mM HEPES, 2 mM L-glutamine, and 1% penicillin/streptomycin
Whole blood was collected from human volunteers using sodium heparin Vacutainer™ tubes and processed within two hours of collection. Blood was diluted 3-fold with Whole Blood (WB) medium (RPMI 1640, 2% heat inactivated fetal bovine serum, 20 mM HEPES, 2 mM L-glutamine, and 1% penicillin/streptomycin). 100 μL of diluted blood was added to each well of a 96-well cell culture plate, followed by 30 μL of a compound test solution.
After a one-hour incubation at 37° C./5% CO2, 20 μL of 7.5 ng/mL lipopolysaccharide (E. coli K-235, Sigma L2018) was added to each well. The cells were incubated again at 37° C./5% CO2 for 16-20 hours. […]
Briefly, test compound supernatants were added to wells of a 96-well plate that were coated with antibody to human TNF-α (R&D Systems, MAB210) and incubated at room temperature for at least one hour. […] The absorbance at 405 nm was then read.

activated p38α enzyme = activated p38α enzyme (Homo sapiens, UniProt Q16539); assay: p38 Biochemical Assay
Sequence of activated p38α enzyme (Q16539 whole entry, the tested form may be a part): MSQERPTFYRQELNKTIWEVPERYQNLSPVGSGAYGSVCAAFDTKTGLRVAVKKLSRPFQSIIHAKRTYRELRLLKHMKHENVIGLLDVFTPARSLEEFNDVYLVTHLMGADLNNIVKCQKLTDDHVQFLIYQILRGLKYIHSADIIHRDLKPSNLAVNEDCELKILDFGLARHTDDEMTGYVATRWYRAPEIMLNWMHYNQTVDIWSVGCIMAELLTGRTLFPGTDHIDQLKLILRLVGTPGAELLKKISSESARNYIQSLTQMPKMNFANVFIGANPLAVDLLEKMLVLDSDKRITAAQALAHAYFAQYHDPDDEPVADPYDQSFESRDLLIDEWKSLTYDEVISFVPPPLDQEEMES
Method: p38 activity was assayed at room temperature in a 100 μL reaction containing 5 nM activated p38α enzyme and 1 μM ATF-2 (Activating Transcription Factor 2 fusion protein) as the substrate in […] HEPES (pH 7.4), 100 μM Vanadate, 1 mM :DTT, 10 mM MgCl2 and 10 μM [γ-^33P]-ATP (˜0.1 μCi P^33/reaction). The reaction was terminated after 30-40 minutes by adding 25% TCA, allowed to stand for 5 minutes, and then transferred directly to a GF-B membrane filter plate. The filter was washed twice for 30 seconds with 0.5% phosphoric acid using a Tomtec Mach III Automated Harvestor. After washing, the vacuum was continued for 30 seconds to dry the filter. Approximately 30 μL of scintillant was added per well to the filter plate and then read in a Liquid Scintillation Counter (Packard TopCount HTS).

| solubility ([1]; aqueous sample containing 1% DMSO, aqueous buffer, kinetic from dmso stock, pH 6.5, starting conc. 16 μg/mL (with 1% DMSO), read-out: Solubility pH 6.5) [µg/mL] | solubility ([1]; aqueous sample containing 1% DMSO, aqueous buffer, kinetic from dmso stock, pH 7.4, starting conc. 16 μg/mL (with 1% DMSO), read-out: Solubility pH 7.4) [µg/mL] | solubility ([1]; aqueous sample containing 1% DMSO, simulated gastric fluid, kinetic from dmso stock, pH 1.2, starting conc. 16 μg/mL (with 1% DMSO), read-out: Solubility pH 1.2) [µg/mL] | solubility ([1]; aqueous sample containing 2% DMSO, aqueous buffer, kinetic from dmso stock, pH 6.5, starting conc. 32 μg/mL (with 2% DMSO), read-out: Solubility pH 6.5) [µg/mL] | solubility ([1]; aqueous sample containing 2% DMSO, aqueous buffer, kinetic from dmso stock, pH 7.4, starting conc. 32 μg/mL (with 2% DMSO), read-out: Solubility pH 7.4) [µg/mL] | solubility ([1]; aqueous sample containing 2% DMSO, simulated gastric fluid, kinetic from dmso stock, pH 1.2, starting conc. 32 μg/mL (with 2% DMSO), read-out: Solubility pH 1.2) [µg/mL] | aqueous solubility compared to the compound of Example 138 of WO 2004/078116 ([1]; at pH 6.5 and 7.4) | IC50 [2] [nM] | solubility ([1]; aqueous solution (pH 7.4), aqueous buffer, pH 7.4, starting conc. 1000 μg/mL, read-out: Solubility pH 7.4) [µg/mL] | Structure (SMILES) | p38 inhibition potency compared to the compound of Example 138 of WO 2004/078116 (activated p38α enzyme) |
| --- | --- | --- | --- | --- | --- | --- | --- | --- | --- | --- |
| 0.75 (≈ 1.31 µM) | 0.7 (≈ 1.22 µM) | 7.9 (≈ 13.8 µM) | 1.8 (≈ 3.14 µM) | 1.7 (≈ 2.97 µM) | 18.8 (≈ 32.8 µM) | improved aqueous solubility | 447 |  | Cc1ccc(-n2nc(C(C)(C)CO)cc2NC(=O)NCc2cc(F)ccc2Oc2ccc3c(cnn3CCO)c2)cc1 [Example 1] |  |
|  |  |  |  |  |  |  | 1.9 |  | CC(C)(C)c1cc(NC(=O)NCc2cc(F)ccc2Oc2ccc3c(cnn3CCO)c2)n(-c2ccc(CO)cc2)n1 [Example 2, 1-(3-tert-butyl-1-(4-(hydroxymethyl)phenyl)-1H-pyrazol-5-yl)-3-(5-fluoro-2-(1-(2-hydroxymethyl)-1H-indazol-5-yloxy)benzyl)urea] | significantly more potent inhibitor of p38 |
|  |  |  |  |  |  |  |  | 0.045 (≈ 0.0885 µM) | Cn1nc(C(C)(C)C)cc1NC(=O)NCc1cc(F)ccc1Oc1ccc2c(cnn2CC(C)(C)O)c1 [Example 138, reference compound] |  |
